From US11161837B2, “Benzofuran derivatives for the treatment of hepatitis C” (BRISTOL-MYERS SQUIBB COMPANY, priority 2016, dated 2021) come the findings set out here.

Broadly, the EC50 is the concentration that produces a half-maximal response. High values mean a less potent agent, low ones a more potent agent. As a reminder, the IC50 is the concentration at which inhibition is half-maximal. Lower therefore signals higher potency.

The test system of experiment [1] is genotype 1b (Con-1) HCV replicon in Huh-7 cells. Put plainly: HCV replicon luciferase assay. Format: cell-based. The following applies: 1b replicon, Huh-7, Renilla luciferase, 3 days incubation. In outline:
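Huh-7 cells carrying Con-1 genotype 1b replicon with Renilla luciferase reporter seeded onto titrated compound in DMEM, 4% FBS, 0.5% DMSO, 3 days at 37 °C. Luciferase read with EnduRen substrate (7.5 μM final) after ≥1 h; EC50 by four-parameter logistic fit.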

In experiment [2] the target is T1, NS5B proteins of HCV genotype 1b (Con1) (Hepatitis C virus genotype 1b, UniProt Q9WMX2).
T1 construct: Each untagged protein was expressed with an 18 amino acid C-terminal truncation to enhance the solubility; made in house; host or cells: E. coli BL21(DE3), pET21a
Put plainly: HCV NS5B RdRp enzyme assay. Type of experiment: biochemical. The following applies: 1b enzyme. How it is done:
HCVNS5B RdRp Cloning, Expression, and Purification.
The cDNA encoding NS5B proteins of HCV genotype 1b (Con1), a genotype 1b variant with amino acid 316 mutated from cysteine to asparagine, and genotype 2a (JFH-1), were cloned into the pET21a expression vector. Each untagged protein was expressed with an 18 amino acid C-terminal truncation to enhance the solubility. The E. coli competent cell line BL21(DE3) was used for expression of the protein. Cultures were grown at 37° C. for ˜4 hours until the cultures reached an optical density of 2.0 at 600 nm. The cultures were cooled to 20° C. and induced with 1 mM IPTG. Fresh ampicillin was added to a final concentration of 50 μg/mL and the cells were grown overnight at 20° C.
Cell pellets (3 L) were lysed for purification to yield 15-24 mgs of purified NS5B. The lysis buffer consisted of 20 mM Tris-HCl, pH 7.4, 500 mM NaCl, 0.5% triton X-100, 1 mM DTT, 1 mM EDTA, 20% glycerol, 0.5 mg/mL lysozyme, 10 mM MgCl2, 15 ug/mL deoxyribonuclease I, and Complete TM protease inhibitor tablets (Roche). After addition of the lysis buffer, frozen cell pellets were resuspended using a tissue homogenizer. To reduce the viscosity of the sample, aliquots of the lysate were sonicated on ice using a microtip attached to a Branson sonicator. The sonicated lysate was centrifuged at 100,000×g for 30 minutes at 4° C. and filtered through a 0.2 μm filter unit (Corning).
The protein was purified using two sequential chromatography steps: Heparin sepharose CL-6B and polyU sepharose 4B. The chromatography buffers were identical to the lysis buffer but contained no lysozyme, deoxyribonuclease I, MgCl2 or protease inhibitor and the NaCl concentration of the buffer was adjusted according to the requirements for charging the protein onto the column. Each column was eluted with a NaCl gradient which varied in length from 5-50 column volumes depending on the column type. After the final chromatography step, the resulting purity of the enzyme is >90% based on SDS-PAGE analysis. The enzyme was aliquoted and stored at −80° C.
HCVNS5B RdRp Enzyme Assay.
An on-bead solid phase homogeneous assay was used in a 384-well format to assess NS5B inhibitors (WangY-K, Rigat K, Roberts S, and Gao M (2006) Anal Biochem, 359: 106-111). The biotinylated oligo dT12 primer was captured on streptavidin-coupled imaging beads (GE, RPNQ0261) by mixing primer and beads in 1× buffer and incubating at room temperature for three hours. Unbound primer was removed after centrifugation. The primer-bound beads were resuspended in 3× reaction mix (20 mM Hepes buffer, pH 7.5, dT primer coupled beads, poly A template, ^3H-UTP, and RNAse inhibitor (Promega N2515)). Compounds were serially diluted 1:3 in DMSO and aliquoted into assay plates. Equal volumes (10 μL) of water, 3× reaction mix, and enzyme in 3× assay buffer (60 mM Hepes buffer, pH 7.5, 7.5 mM MgCl2, 7.5 mM KCl, 3 mM DTT, 0.03 mg/mL BSA, 6% glycerol) were added to the diluted compound on the assay plate. Final concentration of components in 384-well assay: 0.36 nM template, 15 nM primer, 0.29 μM ^3H-UTP (0.3 μCi), 1.6 U/μL RNAse inhibitor, 7 nM NS5B enzyme, 0.01 mg/mL BSA, 1 mM DTT, and 0.33 μg/μL beads, 20 mM Hepes buffer, pH 7.5, 2.5 mM MgCl2, 2.5 mM KCl, and 0.1% DMSO.
Reactions were allowed to proceed from 4 to 24 hours at 30° C. For 24 hour reactions, enzyme and inhibitors were pre-incubated for 24 hours before adding template and primer. Reactions were terminated by the addition of 50 mM EDTA (10 μL). After incubating for at least 15 minutes, plates were read on an Amersham LEADseeker multimodality imaging system.
IC50 values for compounds were determined using ten different [I]. IC50 values were calculated from the inhibition using the four-parameter logistic formula y=A+((B−A)/(1+((C/x)^D))), where A and B denote minimal and maximal % inhibition, respectively, C is the IC50, D is hill slope and x represents compound concentration.

T1 sequence (Q9WMX2 2420-2992): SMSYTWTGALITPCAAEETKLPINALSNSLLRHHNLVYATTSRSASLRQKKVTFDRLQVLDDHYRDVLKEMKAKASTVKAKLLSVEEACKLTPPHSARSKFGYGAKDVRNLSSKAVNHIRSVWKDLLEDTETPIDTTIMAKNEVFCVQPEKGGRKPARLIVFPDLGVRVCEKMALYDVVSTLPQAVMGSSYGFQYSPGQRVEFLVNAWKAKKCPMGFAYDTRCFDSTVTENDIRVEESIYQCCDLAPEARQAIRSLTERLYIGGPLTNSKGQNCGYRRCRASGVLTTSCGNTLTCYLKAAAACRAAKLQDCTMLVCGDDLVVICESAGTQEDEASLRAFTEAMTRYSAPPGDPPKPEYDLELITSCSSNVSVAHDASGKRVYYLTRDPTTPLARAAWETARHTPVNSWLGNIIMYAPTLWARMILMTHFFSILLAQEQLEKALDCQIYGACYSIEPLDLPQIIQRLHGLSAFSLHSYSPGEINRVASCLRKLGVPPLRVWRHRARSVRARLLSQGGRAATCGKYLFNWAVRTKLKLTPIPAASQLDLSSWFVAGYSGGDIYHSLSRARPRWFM

With `CCOc1cc2oc(-c3ccc(F)cc3)c(C(=O)NC)c2cc1-c1ccc(OC)c(C(=O)NC2(c3ncccn3)CC(OC(F)F)C2)c1` (single isomer, unassigned) [Example 66a, 5-(3-((3-(Difluoromethoxy)-1-(pyrimidin-2-yl)cyclobutyl)carbamoyl)-4-methoxyphenyl)-6-ethoxy-2-(4-fluorophenyl)-N-methylbenzofuran-3-carboxamide], the EC50 in experiment [1] (Hepatitis C virus, Huh-7, 72 h) amounted to 0.00405 µM. Also, the IC50 in experiment [2] is 0.00191 µM.

In the case of `CCOc1cc2oc(-c3ccc(F)cc3)c(C(=O)NC)c2cc1-c1ccc(OC)c(C(=O)NC2(c3ncccn3)CC(OC(F)F)C2)c1` (single isomer, unassigned) [Example 66b, 5-(3-((3-(Difluoromethoxy)-1-(pyrimidin-2-yl)cyclobutyl)carbamoyl)-4-methoxyphenyl)-6-ethoxy-2-(4-fluorophenyl)-N-methylbenzofuran-3-carboxamide], the response in experiment [1] was half-maximal at 0.00439 µM (EC50). The molecule further came in with a 50% inhibitory concentration (IC50) in experiment [2] of 0.00202 µM.

In turn, `CCOc1cc2oc(-c3ccc(F)cc3)c(C(=O)NC)c2cc1-c1cccc(C(=O)NC2(c3ncccn3)CC(OC(F)F)C2)c1` (single isomer, unassigned) [Example 67b, 5-(3-((3-(Difluoromethoxy)-1-(pyrimidin-2-yl)cyclobutyl)carbamoyl)phenyl)-6-ethoxy-2-(4-fluorophenyl)-N-methylbenzofuran-3-carboxamide] gave an EC50 in experiment [1] of 0.0068 µM. The half-maximal inhibitory concentration (IC50) in experiment [2] turned out to be 0.00211 µM.

In turn, `CNC(=O)c1c(-c2ccc(F)cc2)oc2ccc(-c3cc(C(=O)NC4(c5ncccn5)CC(=O)C4)ccc3C)c(F)c12` [Example 6, 4-Fluoro-2-(4-fluorophenyl)-N-methyl-5-(2-methyl-5-((3-oxo-1-(pyrimidin-2-yl)cyclobutyl)carbamoyl)phenyl)benzofuran-3-carboxamide] showed a 50% effective concentration (EC50) in experiment [1] (Hepatitis C virus, Huh-7, 72 h) of 0.02 µM. Moreover, in experiment [2], the IC50 worked out at 0.01 µM.

As to `CNC(=O)c1c(-c2ccc(F)cc2)oc2ccc(-c3cc(C(=O)NC4(c5ncccn5)CC(OC)(OC)C4)ccc3C)c(F)c12` [Example 7, 5-(5-((3,3-Dimethoxy-1-(pyrimidin-2-yl)cyclobutyl)carbamoyl)-2-methylphenyl)-4-fluoro-2-(4-fluorophenyl)-N-methylbenzofuran-3-carboxamide], it took 0.06 µM to reach a half-maximal effect in experiment [1] (Hepatitis C virus, Huh-7, 72 h) (EC50). Also, in experiment [2], the IC50 turned out to be 0.01 µM.

The molecule `CNC(=O)c1c(-c2ccc(F)cc2)oc2ccc(-c3cc(C(=O)NC4(c5ncccn5)CC(OC)(OC)C4)cc(F)c3C)c(F)c12` [Example 8, 5-(5-(3,3-Dimethoxy-1-(pyrimidin-2-yl)cyclobutylcarbamoyl)-3-fluoro-2-methylphenyl)-4-fluoro-2-(4-fluorophenyl)-N-methylbenzofuran-3-carboxamide] showed a 50% effective concentration (EC50) in experiment [1] (Hepatitis C virus, Huh-7, 72 h) of 0.02 µM. In addition, the IC50 in experiment [2] came to 0.04 µM.

For the molecule `CNC(=O)c1c(-c2ccc(F)cc2)oc2ccc(-c3cc(C(=O)NC4(c5ncccn5)CC(OC)(OC)C4)c(OC)cc3C)c(F)c12` [Example 14, 5-(5-((3,3-Dimethoxy-1-(pyrimidin-2-yl)cyclobutyl)carbamoyl)-4-methoxy-2-methylphenyl)-4-fluoro-2-(4-fluorophenyl)-N-methylbenzofuran-3-carboxamide], in experiment [1] (Hepatitis C virus, Huh-7, 72 h), the midpoint of the response, the EC50, lay at 0.02 µM. Besides, the concentration for half-maximal inhibition (IC50) in experiment [2] came out at 0.03 µM.

Regarding `CNC(=O)c1c(-c2ccc(F)cc2)oc2ccc(-c3cc(C(=O)NC4(c5ncccn5)CC(F)(F)C4)ccc3C)c(F)c12` [Example 15, 5-(5-((3,3-Difluoro-1-(pyrimidin-2-yl)cyclobutyl)carbamoyl)-2-methylphenyl)-4-fluoro-2-(4-fluorophenyl)-N-methylbenzofuran-3-carboxamide], in experiment [1] (Hepatitis C virus, Huh-7, 72 h), the EC50 was 0.03 µM. In experiment [2], this molecule returned an IC50 of 0.03 µM.

As for `CNC(=O)c1c(-c2ccc(F)cc2)oc2ccc(-c3cc(C(=O)NC4(c5ncccn5)CC(F)C4)ccc3C)c(F)c12` (stereo not drawn) [Example 16, 4-Fluoro-5-(5-(3-fluoro-1-(pyrimidin-2-yl)cyclobutylcarbamoyl)-2-methylphenyl)-2-(4-fluorophenyl)-N-methylbenzofuran-3-carboxamide], the EC50 in experiment [1] (Hepatitis C virus, Huh-7, 72 h) was found to be 0.00662 µM. Besides, in experiment [2], the IC50 stood at 0.03 µM.

In experiment [1] (Hepatitis C virus, Huh-7, 72 h), `CNC(=O)c1c(-c2ccc(F)cc2)oc2ccc(-c3cc(C(=O)NC4(c5ncccn5)CC(F)(F)C4)cc(F)c3C)c(F)c12` [Example 17, 5-(5-((3,3-Difluoro-1-(pyrimidin-2-yl)cyclobutyl)carbamoyl)-3-fluoro-2-methylphenyl)-4-fluoro-2-(4-fluorophenyl)-N-methylbenzofuran-3-carboxamide] showed a concentration for a half-maximal effect (EC50) of 0.01 µM. For the same molecule, the half-maximal inhibitory concentration (IC50) in experiment [2] is 0.25 µM.

The molecule `CNC(=O)c1c(-c2ccc(F)cc2)oc2ccc(-c3cc(C(=O)NC4(c5ncccn5)CC(F)(F)C4)c(OC)cc3C)c(F)c12` [Example 18, 5-(5-(3,3-Difluoro-1-(pyrimidin-2-yl)cyclobutylcarbamoyl)-4-methoxy-2-methylphenyl)-4-fluoro-2-(4-fluorophenyl)-N-methylbenzofuran-3-carboxamide] returned an EC50 in experiment [1] (Hepatitis C virus, Huh-7, 72 h) of 0.01 µM. In addition, it took 0.14 µM to reach half-maximal inhibition in experiment [2] (IC50).

In turn, `CNC(=O)c1c(-c2ccc(F)cc2)oc2ccc(-c3cc(C(=O)NC4(c5ncccn5)CC(F)C4)c(OC)cc3C)c(F)c12` (stereo not drawn) [Example 19, 4-Fluoro-5-(5-(3-fluoro-1-(pyrimidin-2-yl)cyclobutylcarbamoyl)-4-methoxy-2-methylphenyl)-2-(4-fluorophenyl)-N-methylbenzofuran-3-carboxamide] had an EC50 in experiment [1] (Hepatitis C virus, Huh-7, 72 h) of 0.00526 µM. This molecule also yielded an IC50 in experiment [2] of 0.12 µM.

For the molecule `CNC(=O)c1c(-c2ccc(F)cc2)oc2ccc(-c3cc(C(=O)NC4(c5ncccn5)CC(F)C4)cc(F)c3C)c(F)c12` (stereo not drawn) [Example 20, 4-Fluoro-5-(3-fluoro-5-(3-fluoro-1-(pyrimidin-2-yl)cyclobutylcarbamoyl)-2-methylphenyl)-2-(4-fluorophenyl)-N-methylbenzofuran-3-carboxamide], the EC50 in experiment [1] (Hepatitis C virus, Huh-7, 72 h) was found to be 0.00616 µM. It took 0.09 µM to reach half-maximal inhibition in experiment [2] (IC50).

In turn, `CCN(c1cc2oc(-c3ccc(F)cc3)c(C(=O)NC)c2cc1-c1cccc(C(=O)NC2(c3ncccn3)CC(F)C2)c1)S(C)(=O)=O` (stereo not drawn) [Example 25, 6-(N-ethylmethylsulfonamido)-5-(3-((3-fluoro-1-(pyrimidin-2-yl)cyclobutyl)carbamoyl)phenyl)-2-(4-fluorophenyl)-N-methylbenzofuran-3-carboxamide] returned an EC50 in experiment [1] (Hepatitis C virus, Huh-7, 72 h) of 0.00529 µM. Besides, in experiment [2], the 50% inhibitory concentration (IC50) is 0.00137 µM.

For the molecule `CNC(=O)c1c(-c2ccc(F)cc2)oc2cc(CCC(F)(F)F)c(-c3ccc(F)c(C(=O)NC4(c5ncccn5)CC(OC(F)F)C4)c3)cc12` (stereo not drawn) [Example 42, 5-(3-((3-(Difluoromethoxy)-1-(pyrimidin-2-yl)cyclobutyl)carbamoyl)-4-fluorophenyl)-2-(4-fluorophenyl)-N-methyl-6-(3,3,3-trifluoropropyl)benzofuran-3-carboxamide], the EC50 in experiment [1] (Hepatitis C virus, Huh-7, 72 h) was 0.00573 µM. For the same molecule, half-maximal inhibition in experiment [2] (IC50) required 0.0076 µM.
